Laboratory results as given in US9504684B2, “Syk inhibitors” (Gilead Sciences, Inc., priority 2014, dated 2016).
Where a name gives a salt, the structure may show the parent alone.

What was measured:
human hepatocytes = assay: Human Hepatocyte Stability Assay; assay type: in vitro ADME
Description: The human […] stability of the compounds as predicted hepatocyte clearance in L/hr/kg was assessed. Compounds to be tested were diluted to 200 μM (4 μl of 10 mM DMSO stock into 196 μl ACN:H2O (50:50). Propranolol was used as a positive control, and buffer only without hepatocytes as 0% control. These were further diluted 4 μl with 891 μl KHB buffer (InVitroGRO catalog number Z99074) to provide 2× dosing solution. To each well of 24 well plate, 250 μl of the 2× dosing solution was added to each well with 250 μl of hepatocytes cells (1×10^6 viable cells/ml per well) or KHB for control samples to achieve a final compound concentration of 1 μM during incubation. The final solvent concentration was 0.01% DMSO and 0.25% ACN. The culture plate was placed on a rocker and incubated at 37° C., 5% CO2. Samples were collected at time 0, 1, 3, and 6 hours. The loss of parent compound was determined using LC-MS methods against a standard curve.

[1] = in vivo; cited from earlier work
[2] = cited from earlier work
[3] = comparison table of Example 12, head prints "(units)", L/hr/kg per Example 11
[4] = predicted hepatocyte clearance, human hepatocytes, 1 μM compound

Structure (SMILES) | Hheps CL (human hepatocytes; [3]) [mL/min/kg] | Hheps CL (human hepatocytes; [4]) [mL/min/kg] | other results
COc1ccc(Nc2nc(-c3cccc(N)c3)cn3ccnc23)cc1OC [6-(3-aminophenyl)-N-(3,4-dimethoxyphenyl)imidazo[1,2-a]pyrazin-8-amine, reference compound] | 4 |  | 
Cc1ncc(-c2cn3ccnc3c(Nc3ccc(N4CCN(C5COC5)CC4)cc3)n2)nc1N [Ex.-1, 6-(6-amino-5-methylpyrazin-2-yl)-N-(4-(4-(oxetan-3-yl)piperazin-1-yl)phenyl)imidazo[1,2-a]pyrazin-8-amine] | 2 | 2 | 
Nc1cncc(-c2cn3ccnc3c(Nc3ccc(N4CCN(C5COC5)CC4)c(OCCO)c3)n2)n1 [Ex.-5, 2-(5-((6-(6-aminopyrazin-2-yl)imidazo[1,2-a]pyrazin-8-yl)amino)-2-(4-(oxetan-3-yl)piperazin-1-yl)phenoxy)ethanol] | 1.2 | 1.2 | 
Cc1ncc(-c2cn3ccnc3c(Nc3ccc(N4CCOCC4)cc3)n2)cc1N [6-(5-amino-6-methylpyridin-3-yl)-N-(4-morpholinophenyl)imidazo[1,2-a]pyrazin-8-amine, reference compound] | 13.3 |  | 
Nc1cncc(-c2cn3ccnc3c(Nc3ccc(N4CCOCC4)cc3)n2)c1 [6-(5-aminopyridin-3-yl)-N-(4-morpholinophenyl)imidazo[1,2-a]pyrazin-8-amine, reference compound] | 11.3 |  | 
Nc1cncc(-c2cn3ccnc3c(Nc3ccc(N4CCN(CC(CO)CO)CC4)cc3)n2)n1 [Ex.-6, 2-((4-(4-((6-(6-aminopyrazin-2-yl)imidazo[1,2-a]pyrazin-8-yl)amino)phenyl)piperazin-1-yl)methyl)propane-1,3-diol] | 1.3 | 1.3 | 
Cc1c(-c2cncc(N)n2)nc(Nc2ccc(N3CCN(C4COC4)CC3)cc2)c2nccn12 [Ex.-4, 6-(6-aminopyrazin-2-yl)-5-methyl-N-(4-(4-(oxetan-3-yl)piperazin-1-yl)phenyl)imidazo[1,2-a]pyrazin-8-amine] | 1.3 | 1.3 | 
COc1ccc(Nc2nc(-c3ccc(N)nc3)cn3ccnc23)cc1OC [6-(6-aminopyridin-3-yl)-N-(3,4-dimethoxyphenyl)imidazo[1,2-a]pyrazin-8-amine, reference compound] | 15 |  | 
Nc1cncc(-c2cn3ccnc3c(Nc3ccc(N4CCO[C@@H](CO)C4)cc3)n2)n1 [Ex.-3, (R)-(4-(4-((6-(6-aminopyrazin-2-yl)imidazo[1,2-a]pyrazin-8-yl)amino)phenyl)morpholin-2-yl)methanol] | 1.5 | 1.5 | 
Nc1cncc(-c2cn3ccnc3c(Nc3ccc(N4CCN(C5COC5)CC4)cc3)n2)n1 [Ex.-2, 6-(6-aminopyrazin-2-yl)-N-(4-(4-(oxetan-3-yl)piperazin-1-yl)phenyl)imidazo[1,2-a]pyrazin-8-amine] | 0.917 | 0.917 | 
CC[C@]1(O)C[C@@H]2CN(CCc3c([nH]c4ccccc34)[C@@](C(=O)OC)(c3cc4c(cc3OC)N(C)[C@H]3[C@@](O)(C(N)=O)[C@H](O)[C@]5(CC)C=CCN6CC[C@]43[C@@H]65)C2)C1 [Vindesine, vindesine] |  |  | serum half-life [1]: 24 h
Cc1ncc(-c2cn3ccnc3c(Nc3ccc(N4CCN(C5COC5)CC4)c(OCCO)c3)n2)nc1N [Ex.-7, 2-(5-((6-(6-amino-5-methylpyrazin-2-yl)imidazo[1,2-a]pyrazin-8-yl)amino)-2-(4-(oxetan-3-yl)piperazin-1-yl)phenoxy)ethanol] | 0.83 | 0.83 | 
CC[C@]1(O)C[C@H]2CN(CCc3c([nH]c4ccccc34)[C@@](C(=O)OC)(c3cc4c(cc3OC)N(C=O)[C@H]3[C@@](O)(C(=O)OC)[C@H](OC(C)=O)[C@]5(CC)C=CCN6CC[C@]43[C@@H]65)C2)C1 [Vincristine Sulfate, vincristine sulfate] |  |  | solubility in 95% ethanol ([2]; 95% ethanol): only slightly soluble; solubility in methanol ([2]; methanol): soluble in methanol; solubility in water ([2]; water): freely soluble
